Species on record: Rattus norvegicus
Test: DrugMatrix - Regimen: Daily Repeat
Format: toxicity, organism-based, Sprague-Dawley
Set-up: regimen Daily Repeat, gender Male, age 6-8 weeks
Conditions: in vivo, po, 0 mg/kg, route oral GAVAGE, dose level Control, vehicle .5 % CMC; for ABSOLUTE BASOPHIL / ABSOLUTE EOSINOPHIL / ABSOLUTE LYMPHOCYTE / ABSOLUTE MONOCYTE / ABSOLUTE SEGMENTED NEUTROPHIL / BASOPHIL / EOSINOPHIL / ERYTHROCYTE COUNT / HEMATOCRIT / HEMOGLOBIN / LEUKOCYTE COUNT / LYMPHOCYTE / MEAN CORPUSCULAR HEMOGLOBIN / MEAN CORPUSCULAR HEMOGLOBIN CONCENTRATION / MEAN CORPUSCULAR VOLUME / MONOCYTE / NEUTROPHIL / PLATELET COUNT: tissue Blood; for ALANINE AMINOTRANSFERASE / ALBUMIN / ALKALINE PHOSPHATASE / ASPARTATE AMINOTRANSFERASE / BLOOD UREA NITROGEN / CHLORIDE / CHOLESTEROL / CREATINE PHOSPHOKINASE / CREATININE / GLUCOSE / LACTATE DEHYDROGENASE / LIPASE / PHOSPHORUS / POTASSIUM / SODIUM / TOTAL BILIRUBIN / TOTAL PROTEIN / URIC ACID: tissue Plasma

Structure (SMILES): O=c1cc(-c2ccccc2)oc2c1ccc1ccccc12 [ALPHA-NAPHTHOFLAVONE]
- ABSOLUTE BASOPHIL (120 h, time 5 day): 92 cells/µL
- ABSOLUTE EOSINOPHIL (120 h, time 5 day): 52 cells/µL
- ABSOLUTE LYMPHOCYTE (120 h, time 5 day): 6560 cells/µL
- ABSOLUTE MONOCYTE (120 h, time 5 day): 160 cells/µL
- ABSOLUTE SEGMENTED NEUTROPHIL (120 h, time 5 day): 1130 cells/µL
- BASOPHIL (120 h, time 5 day): 1.14%
- EOSINOPHIL (120 h, time 5 day): 0.68%
- ERYTHROCYTE COUNT (120 h, time 5 day): 7.51 x10E6/uL
- HEMATOCRIT (120 h, time 5 day): 46.04%
- HEMOGLOBIN (120 h, time 5 day): 15.62 G/DL
- LEUKOCYTE COUNT (120 h, time 5 day): 8.03 x10E3/uL
- LYMPHOCYTE (120 h, time 5 day): 81.54%
- MEAN CORPUSCULAR HEMOGLOBIN (120 h, time 5 day): 20.84 pg
- MEAN CORPUSCULAR HEMOGLOBIN CONCENTRATION (120 h, time 5 day): 33.94 G/DL
- MEAN CORPUSCULAR VOLUME (120 h, time 5 day): 61.42 fL
- MONOCYTE (120 h, time 5 day): 2%
- NEUTROPHIL (120 h, time 5 day): 14.24%
- PLATELET COUNT (120 h, time 5 day): 1427.2 x10E3/uL
- ALANINE AMINOTRANSFERASE (120 h, time 5 day): 35.6 u/L
- ALBUMIN (120 h, time 5 day): 3.64 G/DL
- ALKALINE PHOSPHATASE (120 h, time 5 day): 233 u/L
- ASPARTATE AMINOTRANSFERASE (120 h, time 5 day): 81 u/L
- BLOOD UREA NITROGEN (120 h, time 5 day): 12 mg/dL
- CHLORIDE (120 h, time 5 day): 109.4 MEQ/L
- CHOLESTEROL (120 h, time 5 day): 47.6 mg/dL
- CREATINE PHOSPHOKINASE (120 h, time 5 day): 183.2 u/L
- CREATININE (120 h, time 5 day): 0.4 mg/dL
- GLUCOSE (120 h, time 5 day): 134.6 mg/dL
- LACTATE DEHYDROGENASE (120 h, time 5 day): 89.4 u/L
- LIPASE (120 h, time 5 day): 17.2 u/L
- PHOSPHORUS (120 h, time 5 day): 13.02 mg/dL
- POTASSIUM (120 h, time 5 day): 7 MEQ/L
- SODIUM (120 h, time 5 day): 149.6 MEQ/L
- TOTAL BILIRUBIN (120 h, time 5 day): 0.18 mg/dL
- TOTAL PROTEIN (120 h, time 5 day): 6.06 G/DL
- URIC ACID (120 h, time 5 day): 1.04 mg/dL
- ABSOLUTE BASOPHIL (2184 h, time 91 day): 130 cells/µL
- ABSOLUTE EOSINOPHIL (2184 h, time 91 day): 70 cells/µL
- ABSOLUTE LYMPHOCYTE (2184 h, time 91 day): 8670 cells/µL
- ABSOLUTE MONOCYTE (2184 h, time 91 day): 160 cells/µL
- ABSOLUTE SEGMENTED NEUTROPHIL (2184 h, time 91 day): 1530 cells/µL
- BASOPHIL (2184 h, time 91 day): 1.13%
- EOSINOPHIL (2184 h, time 91 day): 0.66%
- ERYTHROCYTE COUNT (2184 h, time 91 day): 9.13 x10E6/uL
- HEMATOCRIT (2184 h, time 91 day): 48.47%
- HEMOGLOBIN (2184 h, time 91 day): 16.56 G/DL
- LEUKOCYTE COUNT (2184 h, time 91 day): 10.5 x10E3/uL
- LYMPHOCYTE (2184 h, time 91 day): 81.63%
- MEAN CORPUSCULAR HEMOGLOBIN (2184 h, time 91 day): 18.16 pg
- MEAN CORPUSCULAR HEMOGLOBIN CONCENTRATION (2184 h, time 91 day): 34.14 G/DL
- MEAN CORPUSCULAR VOLUME (2184 h, time 91 day): 53.14 fL
- MONOCYTE (2184 h, time 91 day): 1.53%
- NEUTROPHIL (2184 h, time 91 day): 14.71%
- PLATELET COUNT (2184 h, time 91 day): 1280.22 x10E3/uL
- ALANINE AMINOTRANSFERASE (2184 h, time 91 day): 28.89 u/L
- ALBUMIN (2184 h, time 91 day): 3.69 G/DL
- ALKALINE PHOSPHATASE (2184 h, time 91 day): 101.11 u/L
- ASPARTATE AMINOTRANSFERASE (2184 h, time 91 day): 70.67 u/L
- BLOOD UREA NITROGEN (2184 h, time 91 day): 16.78 mg/dL
- CHLORIDE (2184 h, time 91 day): 104.56 MEQ/L
- CHOLESTEROL (2184 h, time 91 day): 58.78 mg/dL
- CREATINE PHOSPHOKINASE (2184 h, time 91 day): 91.22 u/L
- CREATININE (2184 h, time 91 day): 0.61 mg/dL
- GLUCOSE (2184 h, time 91 day): 142.33 mg/dL
- LACTATE DEHYDROGENASE (2184 h, time 91 day): 81.67 u/L
- LIPASE (2184 h, time 91 day): 13 u/L
- PHOSPHORUS (2184 h, time 91 day): 7.54 mg/dL
- POTASSIUM (2184 h, time 91 day): 6.27 MEQ/L
- SODIUM (2184 h, time 91 day): 149.89 MEQ/L
- TOTAL BILIRUBIN (2184 h, time 91 day): 0.19 mg/dL
- TOTAL PROTEIN (2184 h, time 91 day): 7.12 G/DL
- URIC ACID (2184 h, time 91 day): 0.97 mg/dL
- ABSOLUTE BASOPHIL ([…], time 28 day): 150 cells/µL
- ABSOLUTE EOSINOPHIL ([…], time 28 day): 54 cells/µL
- ABSOLUTE LYMPHOCYTE ([…], time 28 day): 8890 cells/µL
- ABSOLUTE MONOCYTE ([…], time 28 day): 190 cells/µL
- ABSOLUTE SEGMENTED NEUTROPHIL ([…], time 28 day): 2250 cells/µL
- BASOPHIL ([…], time 28 day): 1.26%
- EOSINOPHIL ([…], time 28 day): 0.46%
- ERYTHROCYTE COUNT ([…], time 28 day): 8.34 x10E6/uL
- HEMATOCRIT ([…], time 28 day): 48.66%
- HEMOGLOBIN ([…], time 28 day): 16.04 G/DL
- LEUKOCYTE COUNT ([…], time 28 day): 11.58 x10E3/uL
- LYMPHOCYTE ([…], time 28 day): 76.74%
- MEAN CORPUSCULAR HEMOGLOBIN ([…], time 28 day): 19.2 pg
- MEAN CORPUSCULAR HEMOGLOBIN CONCENTRATION ([…], time 28 day): 32.92 G/DL
- MEAN CORPUSCULAR VOLUME ([…], time 28 day): 58.32 fL
- MONOCYTE ([…], time 28 day): 1.76%
- NEUTROPHIL ([…], time 28 day): 19.44%
- PLATELET COUNT ([…], time 28 day): 1282.6 x10E3/uL
- ALANINE AMINOTRANSFERASE ([…], time 28 day): 27 u/L
- ALBUMIN ([…], time 28 day): 3.68 G/DL
- ALKALINE PHOSPHATASE ([…], time 28 day): 146.2 u/L
- ASPARTATE AMINOTRANSFERASE ([…], time 28 day): 66.6 u/L
- BLOOD UREA NITROGEN ([…], time 28 day): 12.4 mg/dL
- CHLORIDE ([…], time 28 day): 104.6 MEQ/L
- CHOLESTEROL ([…], time 28 day): 59.6 mg/dL
- CREATINE PHOSPHOKINASE ([…], time 28 day): 121.8 u/L
- CREATININE ([…], time 28 day): 0.6 mg/dL
- GLUCOSE ([…], time 28 day): 143 mg/dL
- LACTATE DEHYDROGENASE ([…], time 28 day): 87.8 u/L
- LIPASE ([…], time 28 day): 17.4 u/L
- PHOSPHORUS ([…], time 28 day): 8.68 mg/dL
- POTASSIUM ([…], time 28 day): 6.02 MEQ/L
- SODIUM ([…], time 28 day): 152.8 MEQ/L
- TOTAL BILIRUBIN ([…], time 28 day): 0.26 mg/dL
- TOTAL PROTEIN ([…], time 28 day): 6.92 G/DL
- URIC ACID ([…], time 28 day): 0.52 mg/dL
